Values of other authors in PubChem BioAssay AID1259409 (Chemical Carcinogenesis Research Information System (CCRIS), 2018).

Tested on: rodent chemically induced tumor inhibition, incidence and multiplicity
Experiment: CCRIS tumor inhibitor studies
Conditions: Species: RAT

Compound | tumour outcome (control, treated, inhibition, significance) (Carcinogen: 1-METHYL-1-NITROSOUREA, 684-93-5, Dose [Inhibitor]: 0, 0.03% IN A PURIFIED HIGH-FAT (24.6%) DIET FOR 37 WK BEGINNING 1 WK POST CARCINOGEN DOSE (STUDY DURATION: 38 WK), Route [Inhibitor]: ORAL, Strain/Sex: SPRAGUE-DAWLEY/FEMALE, Target Tissue: Type of Lesion: MAMMARY GLAND: CARCINOMA, Dose [Carcinogen]: 12.5 MG/KG BW ONCE, Promoter: NONE USED) | tumour outcome (control, treated, inhibition, significance) (Carcinogen: 1-METHYL-1-NITROSOUREA, 684-93-5, Dose [Inhibitor]: 0, 0.03% IN DIET FOR DURATION OF STUDY BEGINNING 7 D POST CARCINOGEN DOSE (STUDY DURATION: 24 WK), Route [Inhibitor]: ORAL, Strain/Sex: SPRAGUE-DAWLEY/FEMALE, Target Tissue: Type of Lesion: MAMMARY GLAND: ADENOCARCINOMA, Dose [Carcinogen]: 50 MG/KG ONCE, Promoter: NONE USED) | tumour outcome (control, treated, inhibition, significance) (Carcinogen: 1-METHYL-1-NITROSOUREA, 684-93-5, Dose [Inhibitor]: 0, 0.06% IN A PURIFIED HIGH-FAT (24.6%) DIET FOR 37 WK BEGINNING 1 WK POST CARCINOGEN DOSE (STUDY DURATION: 38 WK), Route [Inhibitor]: ORAL, Strain/Sex: SPRAGUE-DAWLEY/FEMALE, Target Tissue: Type of Lesion: MAMMARY GLAND: CARCINOMA, Dose [Carcinogen]: 12.5 MG/KG BW ONCE, Promoter: NONE USED) | tumour outcome (control, treated, inhibition, significance) (Carcinogen: 1-METHYL-1-NITROSOUREA, 684-93-5, Dose [Inhibitor]: 0, 0.06% IN DIET FOR DURATION OF STUDY BEGINNING 7 D POST CARCINOGEN DOSE (STUDY DURATION: 24 WK), Route [Inhibitor]: ORAL, Strain/Sex: SPRAGUE-DAWLEY/FEMALE, Target Tissue: Type of Lesion: MAMMARY GLAND: ADENOCARCINOMA, Dose [Carcinogen]: 50 MG/KG ONCE, Promoter: NONE USED) | tumour outcome (control, treated, inhibition, significance) (Carcinogen: AZOXYMETHANE, 25843-45-2, Dose [Inhibitor]: 0, 500 PPM IN DIET FOR 29 WK BEGINNING 1 WK POST CARCINOGEN TREATMENT (STUDY DURATION: 32 WK), Route [Inhibitor]: ORAL, Strain/Sex: F344/MALE, Target Tissue: Type of Lesion: COLON: ADENOMA, Dose [Carcinogen]: 15 MG/KG BW 1/WK FOR 2 WK, Promoter: NONE USED) | tumour outcome (control, treated, inhibition, significance) (Carcinogen: AZOXYMETHANE, 25843-45-2, Dose [Inhibitor]: 0, 500 PPM IN DIET FOR 29 WK BEGINNING 1 WK POST CARCINOGEN TREATMENT (STUDY DURATION: 32 WK), Route [Inhibitor]: ORAL, Strain/Sex: F344/MALE, Target Tissue: Type of Lesion: COLON: CARCINOMA, Dose [Carcinogen]: 15 MG/KG BW 1/WK FOR 2 WK, Promoter: NONE USED) | tumour outcome (control, treated, inhibition, significance) (Carcinogen: AZOXYMETHANE, 25843-45-2, Dose [Inhibitor]: 0, 1000 PPM IN DIET FOR 29 WK BEGINNING 1 WK POST CARCINOGEN TREATMENT (STUDY DURATION: 32 WK), Route [Inhibitor]: ORAL, Strain/Sex: F344/MALE, Target Tissue: Type of Lesion: COLON: ADENOMA, Dose [Carcinogen]: 15 MG/KG BW 1/WK FOR 2 WK, Promoter: NONE USED) | tumour outcome (control, treated, inhibition, significance) (Carcinogen: AZOXYMETHANE, 25843-45-2, Dose [Inhibitor]: 0, 1000 PPM IN DIET FOR 29 WK BEGINNING 1 WK POST CARCINOGEN TREATMENT (STUDY DURATION: 32 WK), Route [Inhibitor]: ORAL, Strain/Sex: F344/MALE, Target Tissue: Type of Lesion: COLON: CARCINOMA, Dose [Carcinogen]: 15 MG/KG BW 1/WK FOR 2 WK, Promoter: NONE USED) | tumour outcome (control, treated, inhibition, significance) (Carcinogen: AZOXYMETHANE, 25843-45-2, Dose [Inhibitor]: 0, 2000 PPM IN DIET FOR 29 WK BEGINNING 1 WK POST CARCINOGEN TREATMENT (STUDY DURATION: 32 WK), Route [Inhibitor]: ORAL, Strain/Sex: F344/MALE, Target Tissue: Type of Lesion: COLON: ADENOMA, Dose [Carcinogen]: 15 MG/KG BW 1/WK FOR 2 WK, Promoter: NONE USED) | tumour outcome (control, treated, inhibition, significance) (Carcinogen: AZOXYMETHANE, 25843-45-2, Dose [Inhibitor]: 0, 2000 PPM IN DIET FOR 29 WK BEGINNING 1 WK POST CARCINOGEN TREATMENT (STUDY DURATION: 32 WK), Route [Inhibitor]: ORAL, Strain/Sex: F344/MALE, Target Tissue: Type of Lesion: COLON: CARCINOMA, Dose [Carcinogen]: 15 MG/KG BW 1/WK FOR 2 WK, Promoter: NONE USED) | tumour outcome (control, treated, inhibition, significance) (Carcinogen: N-BUTYL-N-(N-HYDROXYBUTYL)NITROSAMINE [3817-11-6], Dose [Inhibitor]: 0, 600 MG/KG IN DIET FOR 6 MONTHS BEGINNING 1 WK PRIOR TO FIRST CARCINOGEN DOSE (STUDY DURATION: 6 MONTHS), Route [Inhibitor]: ORAL, Strain/Sex: F344/FEMALE, Target Tissue: Type of Lesion: URINARY BLADDER: CARCINOMA, Dose [Carcinogen]: 150 MG IN 20% ETHANOL 2X/WK FOR 8 WK (STUDY DURATION: 6 MONTHS), Promoter: NONE) | tumour outcome (control, treated, inhibition, significance) (Carcinogen: N-BUTYL-N-(N-HYDROXYBUTYL)NITROSAMINE [3817-11-6], Dose [Inhibitor]: 0, 600 MG/KG IN DIET FOR 6 MONTHS BEGINNING 1 WK PRIOR TO FIRST CARCINOGEN DOSE (STUDY DURATION: 6 MONTHS), Route [Inhibitor]: ORAL, Strain/Sex: F344/FEMALE, Target Tissue: Type of Lesion: URINARY BLADDER: PAPILLOMA, Dose [Carcinogen]: 150 MG IN 20% ETHANOL 2X/WK FOR 8 WK (STUDY DURATION: 6 MONTHS), Promoter: NONE) | tumour outcome (control, treated, inhibition, significance) (Carcinogen: N-BUTYL-N-(N-HYDROXYBUTYL)NITROSAMINE [3817-11-6], Dose [Inhibitor]: 0, 800 MG/KG IN DIET FOR 6 MONTHS BEGINNING 1 WK PRIOR TO FIRST CARCINOGEN DOSE (STUDY DURATION: 6 MONTHS), Route [Inhibitor]: ORAL, Strain/Sex: F344/FEMALE, Target Tissue: Type of Lesion: URINARY BLADDER: CARCINOMA, Dose [Carcinogen]: 150 MG IN 20% ETHANOL 2X/WK FOR 8 WK (STUDY DURATION: 6 MONTHS), Promoter: NONE) | tumour outcome (control, treated, inhibition, significance) (Carcinogen: N-BUTYL-N-(N-HYDROXYBUTYL)NITROSAMINE [3817-11-6], Dose [Inhibitor]: 0, 800 MG/KG IN DIET FOR 6 MONTHS BEGINNING 1 WK PRIOR TO FIRST CARCINOGEN DOSE (STUDY DURATION: 6 MONTHS), Route [Inhibitor]: ORAL, Strain/Sex: F344/FEMALE, Target Tissue: Type of Lesion: URINARY BLADDER: PAPILLOMA, Dose [Carcinogen]: 150 MG IN 20% ETHANOL 2X/WK FOR 8 WK (STUDY DURATION: 6 MONTHS), Promoter: NONE) | tumour outcome (control, treated, inhibition, significance) (Carcinogen: N-BUTYL-N-(N-HYDROXYBUTYL)NITROSAMINE [3817-11-6], Dose [Inhibitor]: 0, 1000 MG/KG IN DIET FOR 6 MONTHS BEGINNING 1 WK PRIOR TO FIRST CARCINOGEN DOSE (STUDY DURATION: 6 MONTHS), Route [Inhibitor]: ORAL, Strain/Sex: F344/FEMALE, Target Tissue: Type of Lesion: URINARY BLADDER: CARCINOMA, Dose [Carcinogen]: 150 MG IN 20% ETHANOL 2X/WK FOR 8 WK (STUDY DURATION: 6 MONTHS), Promoter: NONE) | tumour outcome (control, treated, inhibition, significance) (Carcinogen: N-BUTYL-N-(N-HYDROXYBUTYL)NITROSAMINE [3817-11-6], Dose [Inhibitor]: 0, 1000 MG/KG IN DIET FOR 6 MONTHS BEGINNING 1 WK PRIOR TO FIRST CARCINOGEN DOSE (STUDY DURATION: 6 MONTHS), Route [Inhibitor]: ORAL, Strain/Sex: F344/FEMALE, Target Tissue: Type of Lesion: URINARY BLADDER: PAPILLOMA, Dose [Carcinogen]: 150 MG IN 20% ETHANOL 2X/WK FOR 8 WK (STUDY DURATION: 6 MONTHS), Promoter: NONE) | tumour outcome (control, treated, inhibition, significance) (Carcinogen: N-BUTYL-N-(N-HYDROXYBUTYL)NITROSAMINE [3817-11-6], Dose [Inhibitor]: 0, 1200 MG/KG IN DIET FOR 6 MONTHS BEGINNING 1 WK PRIOR TO FIRST CARCINOGEN DOSE (STUDY DURATION: 6 MONTHS), Route [Inhibitor]: ORAL, Strain/Sex: F344/FEMALE, Target Tissue: Type of Lesion: URINARY BLADDER: CARCINOMA, Dose [Carcinogen]: 150 MG IN 20% ETHANOL 2X/WK FOR 8 WK (STUDY DURATION: 6 MONTHS), Promoter: NONE) | tumour outcome (control, treated, inhibition, significance) (Carcinogen: N-BUTYL-N-(N-HYDROXYBUTYL)NITROSAMINE [3817-11-6], Dose [Inhibitor]: 0, 1200 MG/KG IN DIET FOR 6 MONTHS BEGINNING 1 WK PRIOR TO FIRST CARCINOGEN DOSE (STUDY DURATION: 6 MONTHS), Route [Inhibitor]: ORAL, Strain/Sex: F344/FEMALE, Target Tissue: Type of Lesion: URINARY BLADDER: PAPILLOMA, Dose [Carcinogen]: 150 MG IN 20% ETHANOL 2X/WK FOR 8 WK (STUDY DURATION: 6 MONTHS), Promoter: NONE) | tumour outcome (control, treated, inhibition, significance) (Carcinogen: 7,12-DIMETHYLBENZ[A]ANTHRACENE [57-97-6], Dose [Inhibitor]: 20 UG/L IN 0.05 ML PEANUT OIL 2X/WK FOR 2 WK BEGINNING AT 7 D OF AGE (STUDY DURATION: 24 WK), Route [Inhibitor]: SUBCUTANEOUS, Strain/Sex: SPRAGUE-DAWLEY/FEMALE, Target Tissue: Type of Lesion: MAMMARY GLAND: TUMOR, Dose [Carcinogen]: 10 MG IN 1 ML PEANUT OIL ONCE AT 45 D OF AGE (STUDY DURATION: 24 WK), Promoter: NONE)
CC1=C(CC(=O)O)c2cc(F)ccc2/C1=C\c1ccc(S(C)(=O)=O)cc1 | 30%, 12%, 60%, p<0.05 | 93%, 93%, 0%, not significant | 30%, 16%, 47%, p<0.05 | 93%, 72%, 23%, p<0.05 | 77%, 60%, 22%, not significant | 53%, 63%, -19%, not significant | 77%, 40%, 48%, p<0.05 | 53%, 37%, 30%, not significant | 77%, 20%, 74%, p<0.05 | 53%, 10%, 81%, p<0.05 | 27%, 30%, -11%, not significant | 60%, 60%, 0%, not significant | 27%, 23%, 15%, not significant | 60%, 43%, 28%, not significant | 27%, 14%, 48%, not significant | 60%, 38%, 37%, not significant | 27%, 7%, 74%, not significant | 60%, 27%, 55%, not significant | –
C[C@H]1CCCC(=O)CCC/C=C/c2cc(O)cc(O)c2C(=O)O1 | – | – | – | – | – | – | – | – | – | – | – | – | – | – | – | – | – | – | 17/30 (57%), 9/30 (30%), 47%, p<0.018
